The values below come from the supplement of paper PMC10307832.

Assay in all cases: relative viability (nuclei count vs DMSO), 5 days (fraction); higher = more cells survive
Compound in assay [1]: CN[C@@H]1C[C@H]2O[C@@](C)([C@@H]1OC)n1c3ccccc3c3c4c(c5c6ccccc6n2c5c31)C(=O)NC4 [Staurosporine] + Nc1nc2[nH]cc(CCc3ccc(C(=O)N[C@@H](CCC(=O)O)C(=O)O)cc3)c2c(=O)[nH]1 [Pemetrexed] (partner 0.2 µM)
In a few lines:
(§1)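 Lung cancer cell lines in 1536-well plates got either a single drug or a fixed anchor-drug dose together with five library-drug doses (not always all listed) in √10 steps, by pin tool, on the day after seeding. Nuclei were counted after 5 days, and relative viability is the treated-to-vehicle ratio of nuclei counts. Values are medians of duplicate plates.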

Compound in the assay “5-Fluorouracil + OSI-027”: O=c1[nH]cc(F)c(=O)[nH]1 [5-Fluorouracil] + COc1cccc2cc(-c3nc([C@H]4CC[C@H](C(=O)O)CC4)n4ncnc(N)c34)[nH]c12 [OSI-027] (partner 0.5 µM)
Summed up:
as §1

Compound in the assay “Sulindac + Linsitinib”: CC1=C(CC(=O)O)c2cc(F)ccc2/C1=C\c1ccc([S+](C)[O-])cc1 [Sulindac] + C[C@]1(O)C[C@@H](c2nc(-c3ccc4ccc(-c5ccccc5)nc4c3)c3c(N)nccn32)C1 [Linsitinib] (partner 1 µM)
Summed up: as §1

Compound in the assay “Sulindac + Bortezomib”: CC1=C(CC(=O)O)c2cc(F)ccc2/C1=C\c1ccc([S+](C)[O-])cc1 [Sulindac] + CC(C)C[C@H](NC(=O)[C@H](Cc1ccccc1)NC(=O)c1cnccn1)B(O)O [Bortezomib] (partner 0.002 µM)
In a few lines: as §1

Regarding RERF-LC-KJ, the relative viability in assay [1] (first compound 0.005 µM) amounted to 0.501; in assay [1] (first compound 0.01581 µM), 0.423; in assay [1] (first compound 0.05 µM), 0.375; in assay [1] (first compound 0.1581 µM) it was 0.205; in assay [1] (first compound 0.5 µM) it was 0.202; in the assay with 5-Fluorouracil + OSI-027 (first compound 0.02 µM) it was 0.609. Also, the relative viability with 5-Fluorouracil + OSI-027 (first compound 0.2 µM) came to 0.553; with 5-Fluorouracil + OSI-027 (first compound 0.6325 µM), 0.543; with 5-Fluorouracil + OSI-027 (first compound 2 µM), 0.471; with Sulindac + Linsitinib (first compound 0.08 µM) it was 0.922; with Sulindac + Linsitinib (first compound 0.253 µM), 0.948; with Sulindac + Linsitinib (first compound 0.8 µM) it was 0.738. For the same cell line, the relative viability amounted to 0.895 with Sulindac + Linsitinib (first compound 2.53 µM); 0.895 with Sulindac + Linsitinib (first compound 8 µM); 1.23 with Sulindac + Bortezomib (first compound 0.08 µM); 1.08 with Sulindac + Bortezomib (first compound 0.253 µM); 0.92 with Sulindac + Bortezomib (first compound 0.8 µM); 1.07 with Sulindac + Bortezomib (first compound 2.53 µM). The relative viability in the assay with Sulindac + Bortezomib (first compound 8 µM) is 1.25.

Regarding SK-LU-1, the relative viability was determined as 0.416 in assay [1] (first compound 0.005 µM); 0.182 in assay [1] (first compound 0.01581 µM); 0.167 in assay [1] (first compound 0.05 µM); 0.163 in assay [1] (first compound 0.1581 µM); 0.176 in assay [1] (first compound 0.5 µM); 0.374 with 5-Fluorouracil + OSI-027 (first compound 0.02 µM). For the same cell line, the relative viability with 5-Fluorouracil + OSI-027 (first compound 0.2 µM) was determined as 0.309; with 5-Fluorouracil + OSI-027 (first compound 0.6325 µM), 0.342; with 5-Fluorouracil + OSI-027 (first compound 2 µM), 0.321; with Sulindac + Linsitinib (first compound 0.08 µM) it was 1.13; with Sulindac + Linsitinib (first compound 0.253 µM) it was 1.27; in the assay with Sulindac + Linsitinib (first compound 0.8 µM) it was 1.19. In addition, the relative viability is 1 with Sulindac + Linsitinib (first compound 2.53 µM); 1.5 with Sulindac + Linsitinib (first compound 8 µM); 1.7 in the assay with Sulindac + Bortezomib (first compound 0.08 µM); 1.07 with Sulindac + Bortezomib (first compound 0.253 µM); 0.906 with Sulindac + Bortezomib (first compound 2.53 µM); 1.8 with Sulindac + Bortezomib (first compound 8 µM).

Take SW 1573: the relative viability was 0.297 in assay [1] (first compound 0.005 µM); 0.34 in assay [1] (first compound 0.01581 µM); 0.204 in assay [1] (first compound 0.05 µM); 0.0927 in assay [1] (first compound 0.1581 µM); 0.0611 in assay [1] (first compound 0.5 µM); 0.548 with 5-Fluorouracil + OSI-027 (first compound 0.02 µM). The relative viability came to 0.73 with 5-Fluorouracil + OSI-027 (first compound 0.2 µM); 0.633 with 5-Fluorouracil + OSI-027 (first compound 0.6325 µM); 0.327 with 5-Fluorouracil + OSI-027 (first compound 2 µM); 0.834 with Sulindac + Linsitinib (first compound 0.08 µM); 0.788 with Sulindac + Linsitinib (first compound 0.253 µM); 0.804 in the assay with Sulindac + Linsitinib (first compound 0.8 µM). In addition, the relative viability with Sulindac + Linsitinib (first compound 2.53 µM) was found to be 0.95; with Sulindac + Linsitinib (first compound 8 µM) it was 0.722; with Sulindac + Bortezomib (first compound 0.253 µM) it was 1; in the assay with Sulindac + Bortezomib (first compound 2.53 µM) it was 1.19; with Sulindac + Bortezomib (first compound 8 µM), 1.13.
